{"source": "patent US10246498B2", "about": "“Genetically encoded histone reporter allele constructs” (THE JOHNS HOPKINS UNIVERSITY, priority 2014, dated 2019)", "tested_on": "H3K4 trimethylation", "assay": "H3K4 trimethylation (H3K4me3) reporter allele, GFP fluorescence by FACS", "assay_type": "cell-based", "details": "FIG. 18F", "text": "An H3K4 trimethylation reporter was also created (FIG. 5B). This reporter is based on the H3 tail on one end and the TBP associated factor III (TAFIII) […] on the other end; the TAFIII […] only identifies and binds to trimethylated K4 on H3. When the H3K4 site gets trimethylated, the TAFIII […] can bind to the modified H3 tail and bring the two parts of the separated GFP in close proximity. The activity of the epigenetic modification system can be quantified through fluorescence.\nEpigenetic reporter alleles were synthesized (OriGene, Rockville, Md.) using published sequences for component elements (Baird et al. (1999) Proc. Natl. Acad. Sci. 96:11241-6; Souslova et al. (2007) BMC Biotechnol. 7:37). Single nucleotide mutations were created using the QuickChange Lightening kit (Agilent Technologies Inc, Santa Clara, Calif.). […] FACS data were analyzed using FlowJo (Tree Star Inc, Ashland, Oreg.). […]\nEpigenetic reporter systems were created that monitor either H4 acetylation or H3K4 trimethylation machinery activity in an effort to determine whether there is an ongoing activity deficiency in cells from Kmt2d^+/βGeo mice (FIG. 18A). Both reporter alleles encode halves of green fluorescent protein separated by a flexible linker region (Baird et al. (1999) Proc. Natl. Acad. Sci. 96: 11241-6) with a histone tail and a histone reader at the N- and C-termini, respectively. […]", "data": [{"molecule": "CC(C)[C@H](C(=O)Nc1ccc(C(=O)NO)cc1)c1ccccc1", "note": "[AR-42]", "values": [{"measurement": "cell numbers", "setting": "higher doses", "value": "decreased cell numbers at higher doses"}, {"measurement": "response of the H3K4me3 indicator", "setting": "increasing levels of drug", "value": "dose dependent response"}]}]}
